# Measurements from doi:10.1101/2025.05.23.655116v1 (biorxiv, 2025).
# Biological target: T1, FBG domain of Tenascin C (FBG-C, FBG-BAP, hFBG-C) (Homo sapiens, UniProt P24821)
# T1 sequence (P24821 1976-2193): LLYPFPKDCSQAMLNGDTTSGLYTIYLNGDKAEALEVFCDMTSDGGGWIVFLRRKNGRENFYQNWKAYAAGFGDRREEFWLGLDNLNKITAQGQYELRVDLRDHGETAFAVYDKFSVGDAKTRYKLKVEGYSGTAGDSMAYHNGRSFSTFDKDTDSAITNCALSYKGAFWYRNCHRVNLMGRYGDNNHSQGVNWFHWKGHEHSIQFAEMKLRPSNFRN
# Test: SPR, biotinylated FBG on SA chip
# Assay type: binding
compound,measurement,value
"COc1ccc(CN(C)CCc2cnn(C)c2)cc1OC[C@@H](O)CN1CCCCC1 [compound 830, 73494830]",Kd,553 µM
